Tests used:
Type in all cases: biochemical
[1] = biological target: T1, Zea mays EPSPS variant Zm-H6 (868-H6) with A36G (H6-A36G) (Zea mays, UniProt O24566, A1R/A35G/A3W/A415G/A71Q/D401G/E301S/E390G/G101A/I207L/K83R/L97C/T278A/T360S/T440Q/V437R); assay: Substrate saturation kinetic analysis with glyphosate, H6-A36G
T1 sequence (O24566 with tags, fused parts or gaps A1R/A3W/A35G/A71Q/K83R/L97C/G101A/I207L/T278A/E301S/T360S/E390G/D401G/A415G/V437R/T440Q): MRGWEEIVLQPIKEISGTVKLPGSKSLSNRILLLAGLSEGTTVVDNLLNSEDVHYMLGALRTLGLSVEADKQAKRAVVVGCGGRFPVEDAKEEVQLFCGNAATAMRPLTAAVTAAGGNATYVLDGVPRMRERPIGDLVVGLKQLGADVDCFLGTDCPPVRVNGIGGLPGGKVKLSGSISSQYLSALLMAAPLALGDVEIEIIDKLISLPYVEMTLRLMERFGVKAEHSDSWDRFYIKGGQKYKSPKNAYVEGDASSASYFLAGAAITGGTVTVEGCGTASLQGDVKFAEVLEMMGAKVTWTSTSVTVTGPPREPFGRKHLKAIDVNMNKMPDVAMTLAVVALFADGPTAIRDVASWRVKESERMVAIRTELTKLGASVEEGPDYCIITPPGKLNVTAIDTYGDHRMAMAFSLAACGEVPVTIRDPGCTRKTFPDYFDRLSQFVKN

[2] = biological target: Zea mays EPSPS variant 868-H6 (A2R, A4W, A72Q, K84R, L98C, G102A, I208L, T279A, E302S, T361S, E391G, D402G, A416G, V438R, T441Q), SEQ ID NO:5 (Zea mays, UniProt O24566, A1R/A3W/A415G/A71Q/D401G/E301S/E390G/G101A/I207L/K83R/L97C/T278A/T360S/T440Q/V437R); assay: EPSPS substrate saturation kinetics, 868-H6
Procedure: EPSPS activity was determined by quantifying the phosphate generated from the EPSPS reaction. Release of inorganic phosphate was coupled to reaction with 2-amino-6-mercapto-7-methylpurine ribonucleoside, catalyzed by purine-nucleoside phosphorylase (M R Webb, Proc. Natl. Acad. Sci. 89:4884-4887, 1992). The absorbance change that occurs was monitored at 360 nm, where the extinction is 11,200 M^−1 cm^−1, with a Spectramax plate reader (Molecular Devices). To determine kinetic parameters, the varied substrate was present at seven concentrations (the eighth being the blank, containing no substrate) ranging from 4 to 400 uM and the unvaried substrate present at saturation. […] Reactions were monitored with a Spectramax plate reader. […] KI was then calculated from the following form of the Michaelis-Menten equation for competitive inhibition: KI=KM[I]/(KM app−KM) KM approximates the dissociation constant of the enzyme-substrate complex while kcat is the rate of conversion of substrate to product when the substrate concentration is saturating. kcat/KM is a widely accepted parameter for catalytic efficiency when substrate concentration is low (˜KM). […] The parameter kcat/KM×KI is used to quantify both catalytic efficiency and insensitivity and thus the overall fitness of the enzyme. […]

[3] = biological target: T2, Zea mays EPSPS variant Zm-P107L (Zea mays, UniProt O24566, P106L); assay: Rapid two-rate method for (kcat/KM)*KI, Zm-P107L
T2 construct: native maize plus P107L; E. coli BL21(DE3), Ni-NTA purified
T2 sequence (O24566 entry or part of it P106L): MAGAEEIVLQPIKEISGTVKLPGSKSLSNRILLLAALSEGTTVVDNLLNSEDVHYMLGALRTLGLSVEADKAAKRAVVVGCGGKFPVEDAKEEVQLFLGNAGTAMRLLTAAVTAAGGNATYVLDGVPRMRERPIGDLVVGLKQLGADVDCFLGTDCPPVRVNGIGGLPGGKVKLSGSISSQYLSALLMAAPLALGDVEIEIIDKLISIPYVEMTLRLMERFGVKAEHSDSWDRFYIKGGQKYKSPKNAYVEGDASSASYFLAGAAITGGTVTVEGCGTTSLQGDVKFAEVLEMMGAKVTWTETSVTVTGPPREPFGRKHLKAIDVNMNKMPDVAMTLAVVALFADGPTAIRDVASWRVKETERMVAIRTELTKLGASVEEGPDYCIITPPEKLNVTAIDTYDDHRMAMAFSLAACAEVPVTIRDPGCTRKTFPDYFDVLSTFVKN
Description: There are several practical considerations for accurately estimating (kcat/KM)*KI with the rapid method. […] 2) The inhibitor concentration must be adjusted so as to obtain a degree of inhibition that minimally amplifies the error in the term v0-vi in Equation 3. If inhibition is too little, v0-vi will be small, and the error in the multiplier vi×v0/(v0-vi) will be large. […] 3) Substrate concentration should be set at the approximate KM of the parental variant(s), subject to the sensitivity of the assay. High substrate concentration obscures sensitivity to the inhibitor and reduces stringency for capturing improvements in KM. Depending on the necessity for speed, there exists opportunity for customizing enzyme and inhibitor concentrations. […] The rapid method was repeated for those and obtained data that correlated better with data obtained by substrate saturation analysis. For screening purposes however, that correlation step is not necessary. Conditions can be set so that variants with a pre-determined minimal fitness level are accurately quantified.
In Table 15, parameters above the heavy line for the rapid method were obtained under standard conditions. For variants shown below the heavy line, the rapid analysis was repeated with enzyme or glyphosate concentrations adjusted as needed to generate sufficient signal within the limits for linear initial rates.

O=C(O)CNCP(=O)(O)O [glyphosate, N-phosphonomethylglycine]
Ki [1]: 454 µM
(kcat/KM)*KI ([1]; substrate saturation, H6-A36G): 3630
Ki [2]: 629 µM
(kcat/KM)*KI ([2]; PEP as substrate, glyphosate as inhibitor): 10070
(kcat/KM)*KI ([3]; rapid method repeated, [E] 0.014 uM, [Gly] 10 uM): 91
(kcat/KM)*KI ([3]; rapid method, [E] 0.07 uM, [Gly] 1000 uM): 111
